Experimental data: patent US20080009418A1, “Selective Inhibitors” (Alchemia LTD., priority 2004, published 2008)

Tests used:
Conditions in all cases: compound at 10 μM
Human δ-opioid (DOP) = molecular target: T1, Human δ-opioid (DOP) (Homo sapiens, UniProt P41143); test: Radioligand binding, human δ-opioid (DOP) membranes, FlashPlate, [3H]-Bremazocine
T1 construct: purchased Perkin Elmer Biosignal
Procedure, shortened: (§1)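 Cloned human receptor membranes were coated onto FlashPlate wells and incubated with radioligand and compound (added from a 0.5 mM DMSO daughter plate) for 1 hour at room temperature in the dark. Scintillation counting gave percent inhibition, with DMSO defining total and reference ligand defining non-specific binding.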

Human κ-Opioid (KOP) = molecular target: T2, Human κ-Opioid (KOP) (Homo sapiens, UniProt P41145); test: Radioligand binding, human κ-opioid (KOP) membranes, filtration, [3H]-Diprenorphine
T2 construct: purchased Perkin Elmer Biosignal
T2 sequence (P41145 whole entry): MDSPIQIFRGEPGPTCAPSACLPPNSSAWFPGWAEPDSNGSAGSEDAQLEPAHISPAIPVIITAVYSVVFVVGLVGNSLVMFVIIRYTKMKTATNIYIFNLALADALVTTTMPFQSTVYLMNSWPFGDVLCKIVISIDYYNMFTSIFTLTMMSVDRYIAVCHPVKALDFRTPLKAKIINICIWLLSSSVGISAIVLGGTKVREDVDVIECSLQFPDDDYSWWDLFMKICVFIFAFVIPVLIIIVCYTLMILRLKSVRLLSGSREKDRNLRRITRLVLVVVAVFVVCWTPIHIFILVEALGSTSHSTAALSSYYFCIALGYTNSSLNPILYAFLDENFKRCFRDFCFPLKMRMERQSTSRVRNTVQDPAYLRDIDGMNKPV
Procedure, shortened: (§2)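 Percent inhibition of radioligand binding measured on recombinant human membranes: NK1 with [125I]-Substance P, KOP with [3H]-Diprenorphine. Incubation 1 h at room temperature, then harvest onto 0.3% PEI-soaked filters, cold Tris-HCl pH 7.4 washes and scintillation counting; non-specific binding from reference ligand wells.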

Human Melanocortin (MC3) = molecular target: T3, Human Melanocortin (MC3) (Homo sapiens, UniProt P41968); test: Radioligand binding, human melanocortin MC3 membranes, FlashPlate, [125I]-NDP-αMSH
T3 construct: purchased Perkin Elmer Biosignal
T3 sequence (P41968 whole entry): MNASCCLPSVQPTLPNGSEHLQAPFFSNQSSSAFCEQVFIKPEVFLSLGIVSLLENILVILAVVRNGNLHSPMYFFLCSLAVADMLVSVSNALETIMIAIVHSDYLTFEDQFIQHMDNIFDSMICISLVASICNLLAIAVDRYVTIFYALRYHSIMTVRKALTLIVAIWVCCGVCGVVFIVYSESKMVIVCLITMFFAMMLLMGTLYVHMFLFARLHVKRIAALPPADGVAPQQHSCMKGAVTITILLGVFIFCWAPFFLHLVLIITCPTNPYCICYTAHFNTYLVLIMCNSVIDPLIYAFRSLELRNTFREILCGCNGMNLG
Procedure, shortened: as §1

Human Melanocortin (MC4) = molecular target: T4, Human Melanocortin (MC4) (Homo sapiens, UniProt P32245); test: Radioligand binding, human melanocortin MC4 membranes, FlashPlate, [125I]-NDP-αMSH
T4 construct: purchased Perkin Elmer Biosignal
T4 sequence (P32245 whole entry): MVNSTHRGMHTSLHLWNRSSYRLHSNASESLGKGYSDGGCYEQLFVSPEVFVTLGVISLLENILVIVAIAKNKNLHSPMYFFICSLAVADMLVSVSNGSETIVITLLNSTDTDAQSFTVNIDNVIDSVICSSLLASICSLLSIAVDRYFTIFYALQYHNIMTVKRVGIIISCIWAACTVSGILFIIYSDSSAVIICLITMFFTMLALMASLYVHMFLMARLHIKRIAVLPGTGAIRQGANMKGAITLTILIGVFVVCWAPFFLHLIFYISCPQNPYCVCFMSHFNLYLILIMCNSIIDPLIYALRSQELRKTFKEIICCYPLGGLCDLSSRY
Procedure, shortened: as §1

Human melanocortin (MC5) = molecular target: T5, Human melanocortin (MC5) (Homo sapiens, UniProt P33032); test: Radioligand binding, human melanocortin MC5 membranes, FlashPlate, [125I]-NDP-αMSH
T5 construct: purchased Perkin Elmer Biosignal
T5 sequence (P33032 whole entry): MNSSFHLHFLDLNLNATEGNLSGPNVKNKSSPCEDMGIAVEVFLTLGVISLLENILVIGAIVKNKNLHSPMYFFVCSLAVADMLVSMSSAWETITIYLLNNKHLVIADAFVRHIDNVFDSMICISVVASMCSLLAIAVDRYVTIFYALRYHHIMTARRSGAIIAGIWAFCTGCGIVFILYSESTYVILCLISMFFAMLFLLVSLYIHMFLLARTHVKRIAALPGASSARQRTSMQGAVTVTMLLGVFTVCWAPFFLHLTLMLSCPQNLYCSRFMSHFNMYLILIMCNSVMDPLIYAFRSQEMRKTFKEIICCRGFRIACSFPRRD
Procedure, shortened: as §1

[1] = molecular target: T6, Human melanin-concentrating hormone (MCH1) (Homo sapiens, UniProt Q99705); test: Radioligand binding, human melanin-concentrating hormone MCH1 membranes, FlashPlate, [125I]-S36057
T6 construct: purchased Perkin Elmer Biosignal
T6 sequence (Q99705 whole entry): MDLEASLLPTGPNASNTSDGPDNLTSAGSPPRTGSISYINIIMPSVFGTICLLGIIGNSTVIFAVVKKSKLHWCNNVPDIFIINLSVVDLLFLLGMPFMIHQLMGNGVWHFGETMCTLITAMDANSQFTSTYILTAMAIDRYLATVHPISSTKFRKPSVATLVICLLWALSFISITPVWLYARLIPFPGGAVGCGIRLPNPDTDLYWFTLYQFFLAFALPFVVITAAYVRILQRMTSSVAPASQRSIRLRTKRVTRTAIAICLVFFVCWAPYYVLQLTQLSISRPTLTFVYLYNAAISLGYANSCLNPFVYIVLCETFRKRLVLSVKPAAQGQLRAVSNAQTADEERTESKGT
Procedure, shortened: as §1

Human μ-opioid (MOP) = molecular target: T7, Human μ-opioid (MOP) (Homo sapiens, UniProt P35372); test: Radioligand binding, human μ-opioid (MOP) membranes, FlashPlate, [3H]-Naloxone
T7 construct: purchased Perkin Elmer Biosignal
T7 sequence (P35372 whole entry): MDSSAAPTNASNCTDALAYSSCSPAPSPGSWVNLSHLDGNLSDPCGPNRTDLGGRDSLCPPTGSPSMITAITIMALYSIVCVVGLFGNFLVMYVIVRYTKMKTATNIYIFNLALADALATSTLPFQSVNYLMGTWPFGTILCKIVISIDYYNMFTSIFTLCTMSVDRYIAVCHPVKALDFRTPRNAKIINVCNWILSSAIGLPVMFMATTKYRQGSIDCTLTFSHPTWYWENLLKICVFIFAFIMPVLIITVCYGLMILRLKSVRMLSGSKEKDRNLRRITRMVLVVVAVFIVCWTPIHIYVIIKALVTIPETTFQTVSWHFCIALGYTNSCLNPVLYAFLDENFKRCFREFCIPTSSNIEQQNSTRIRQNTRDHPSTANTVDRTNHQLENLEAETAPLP
Procedure, shortened: as §1

Human neurokinin (NK1) = molecular target: T8, Human neurokinin (NK1) (Homo sapiens, UniProt P25103); test: Radioligand binding, human neurokinin NK1 membranes, filtration, [125I]-Substance P
T8 construct: purchased Perkin Elmer Biosignal
T8 sequence (P25103 whole entry): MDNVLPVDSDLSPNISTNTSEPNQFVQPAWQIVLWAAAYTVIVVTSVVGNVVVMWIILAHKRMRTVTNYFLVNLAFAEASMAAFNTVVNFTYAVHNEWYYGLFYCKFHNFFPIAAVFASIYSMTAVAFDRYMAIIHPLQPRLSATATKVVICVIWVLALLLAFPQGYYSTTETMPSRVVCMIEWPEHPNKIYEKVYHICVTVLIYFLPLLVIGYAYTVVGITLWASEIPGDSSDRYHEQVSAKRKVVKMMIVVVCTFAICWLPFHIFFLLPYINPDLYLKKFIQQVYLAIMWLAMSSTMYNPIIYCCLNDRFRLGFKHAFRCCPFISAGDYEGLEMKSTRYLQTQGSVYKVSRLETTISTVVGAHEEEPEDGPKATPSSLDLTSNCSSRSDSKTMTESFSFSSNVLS
Procedure, shortened: as §2

[2] = molecular target: T9, Human neuropeptide Y (NPY-Y1) (Homo sapiens, UniProt P25929); test: Radioligand binding, human neuropeptide Y NPY-Y1 membranes, FlashPlate, [125I]-PYY
T9 construct: purchased Perkin Elmer Biosignal
T9 sequence (P25929 1-384): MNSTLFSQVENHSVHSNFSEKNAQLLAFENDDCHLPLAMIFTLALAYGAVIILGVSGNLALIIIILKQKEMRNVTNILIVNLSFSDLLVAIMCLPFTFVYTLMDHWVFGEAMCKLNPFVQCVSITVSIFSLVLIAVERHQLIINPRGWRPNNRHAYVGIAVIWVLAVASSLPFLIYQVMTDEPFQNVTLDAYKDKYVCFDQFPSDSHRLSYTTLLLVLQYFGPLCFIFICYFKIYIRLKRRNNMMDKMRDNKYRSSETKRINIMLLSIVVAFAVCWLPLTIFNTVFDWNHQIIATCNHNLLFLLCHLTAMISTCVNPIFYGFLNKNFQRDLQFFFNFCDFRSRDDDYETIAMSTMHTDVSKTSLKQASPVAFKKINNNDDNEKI
Procedure, shortened: as §1

Human opioid (ORL1) = molecular target: T10, Human opioid (ORL1) (Homo sapiens, UniProt P41146); test: Radioligand binding, human opioid ORL1 membranes, FlashPlate, [125I]-Nociceptin
T10 construct: purchased Perkin Elmer Biosignal
T10 sequence (P41146 whole entry): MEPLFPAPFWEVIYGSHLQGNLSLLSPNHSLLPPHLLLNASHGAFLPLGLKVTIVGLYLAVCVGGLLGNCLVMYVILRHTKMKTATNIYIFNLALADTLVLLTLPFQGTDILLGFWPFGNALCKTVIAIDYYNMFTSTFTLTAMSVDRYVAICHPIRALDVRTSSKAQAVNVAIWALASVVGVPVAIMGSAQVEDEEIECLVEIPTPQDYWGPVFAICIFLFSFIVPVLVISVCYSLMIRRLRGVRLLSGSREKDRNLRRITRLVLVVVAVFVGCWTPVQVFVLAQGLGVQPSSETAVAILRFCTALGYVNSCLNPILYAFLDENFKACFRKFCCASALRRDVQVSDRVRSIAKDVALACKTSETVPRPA
Procedure, shortened: as §1

Mouse urotensin (mUR2) = molecular target: T11, Mouse urotensin (mUR2) (Mus musculus, UniProt Q8VIH9); test: Radioligand binding, mouse urotensin mUR2 membranes, FlashPlate, [125I]-Urotensin II
T11 construct: purchased Perkin Elmer Biosignal
T11 sequence (Q8VIH9 1-385): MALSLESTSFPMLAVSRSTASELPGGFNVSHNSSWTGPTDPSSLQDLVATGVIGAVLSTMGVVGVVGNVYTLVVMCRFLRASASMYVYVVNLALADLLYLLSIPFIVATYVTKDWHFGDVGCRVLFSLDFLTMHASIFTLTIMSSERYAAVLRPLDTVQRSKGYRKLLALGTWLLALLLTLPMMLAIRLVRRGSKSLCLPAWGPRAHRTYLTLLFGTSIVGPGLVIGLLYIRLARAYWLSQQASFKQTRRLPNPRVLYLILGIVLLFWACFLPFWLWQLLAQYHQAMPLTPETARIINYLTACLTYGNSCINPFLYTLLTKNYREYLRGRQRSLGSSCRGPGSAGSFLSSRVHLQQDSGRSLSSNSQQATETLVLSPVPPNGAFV
Procedure, shortened: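 Cloned mouse urotensin (mUR2) receptor membranes from Perkin Elmer Biosignal were immobilized in FlashPlate microplates using a proprietary coating. Each well got 19.5 μl buffer, then 0.5 μl of DMSO, reference ligand, or compound. Adding 5 μl of [125I]-Urotensin II, diluted to 5× final concentration in binding buffer, started binding. Plates were sealed with TopSeal-A and incubated 1 hour at room temperature in the dark. Wells were counted for 30 seconds each on a TopCount after a 60-second delay, and percentage inhibition was calculated.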

T1 sequence (P41143 whole entry): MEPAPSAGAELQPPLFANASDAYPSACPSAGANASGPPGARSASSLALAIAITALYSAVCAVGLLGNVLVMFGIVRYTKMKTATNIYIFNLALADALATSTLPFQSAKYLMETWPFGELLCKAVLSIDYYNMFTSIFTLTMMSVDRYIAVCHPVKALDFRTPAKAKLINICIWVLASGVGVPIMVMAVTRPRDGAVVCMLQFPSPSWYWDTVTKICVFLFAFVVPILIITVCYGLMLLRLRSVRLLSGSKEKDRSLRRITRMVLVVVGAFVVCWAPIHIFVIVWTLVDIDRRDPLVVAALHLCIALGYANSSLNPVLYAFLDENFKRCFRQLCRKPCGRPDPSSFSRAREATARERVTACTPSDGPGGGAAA

NCCCC(=O)NC1C(OCc2ccc(Cl)cc2)OC(COCc2ccccc2)C(O)C1OCc1ccccc1 (single isomer, unassigned) [compound 503]
A1: inhibition of radioligand binding, human δ-opioid (DOP) (Human δ-opioid (DOP); [3H]-Bremazocine): − (“−” indicates less than 50% inhibition at 10 μM)
A2: inhibition of radioligand binding, human κ-opioid (KOP) (Human κ-Opioid (KOP); [3H]-Diprenorphine): − (“−” indicates less than 50% inhibition at 10 μM)
A3: inhibition of radioligand binding, human melanocortin (MC3) (Human Melanocortin (MC3); [125I]-NDP-αMSH): − (“−” indicates less than 50% inhibition at 10 μM)
A4: inhibition of radioligand binding, human melanocortin (MC4) (Human Melanocortin (MC4); [125I]-NDP-αMSH): − (“−” indicates less than 50% inhibition at 10 μM)
A5: inhibition of radioligand binding, human melanocortin (MC5) (Human melanocortin (MC5); [125I]-NDP-αMSH, 10 µM): + (“+” indicates greater than 50% inhibition at 10 μM)
A6: inhibition of radioligand binding, human melanin-concentrating hormone (MCH1) ([1]; [125I]-S36057): − (“−” indicates less than 50% inhibition at 10 μM)
A7: inhibition of radioligand binding, human μ-opioid (MOP) (Human μ-opioid (MOP); [3H]-Naloxone): − (“−” indicates less than 50% inhibition at 10 μM)
A8: inhibition of radioligand binding, human neurokinin (NK1) (Human neurokinin (NK1); [125I]-Substance P): + (“+” indicates greater than 50% inhibition at 10 μM)
A9: inhibition of radioligand binding, human neuropeptide Y (NPY-Y1) ([2]; [125I]-PYY): − (“−” indicates less than 50% inhibition at 10 μM)
A10: inhibition of radioligand binding, human opioid (ORL1) (Human opioid (ORL1); [125I]-Nociceptin, 10 µM): − (“−” indicates less than 50% inhibition at 10 μM)
A11: inhibition of radioligand binding, mouse urotensin (mUR2) (Mouse urotensin (mUR2); [125I]-Urotensin II): − (“−” indicates less than 50% inhibition at 10 μM)

COCC1OC(OCc2ccccc2)C(NC(=O)CNC(=N)N)C(OCc2ccc(-c3ccccc3)cc2)C1O (stereo not shown) [compound 183]
A1 radioligand binding, percentage inhibition (Human δ-opioid (DOP); [3H]-Bremazocine): − (“−” indicates less than 50% inhibition at 10 μM)
A2 radioligand binding, percentage inhibition (Human κ-Opioid (KOP); [3H]-Diprenorphine): − (“−” indicates less than 50% inhibition at 10 μM)
A3 radioligand binding, percentage inhibition (Human Melanocortin (MC3); [125I]-NDP-αMSH): − (“−” indicates less than 50% inhibition at 10 μM)
A4 radioligand binding, percentage inhibition (Human Melanocortin (MC4); [125I]-NDP-αMSH): + (“+” indicates greater than 50% inhibition at 10 μM)
A5 radioligand binding, percentage inhibition (Human melanocortin (MC5); [125I]-NDP-αMSH): + (“+” indicates greater than 50% inhibition at 10 μM)
A6 radioligand binding, percentage inhibition ([1]; [125I]-S36057): + (“+” indicates greater than 50% inhibition at 10 μM)
A7 radioligand binding, percentage inhibition (Human μ-opioid (MOP); [3H]-Naloxone): − (“−” indicates less than 50% inhibition at 10 μM)
A8 radioligand binding, percentage inhibition (Human neurokinin (NK1); [125I]-Substance P): + (“+” indicates greater than 50% inhibition at 10 μM)
A9 radioligand binding, percentage inhibition ([2]; [125I]-PYY): − (“−” indicates less than 50% inhibition at 10 μM)
A10 radioligand binding, percentage inhibition (Human opioid (ORL1); [125I]-Nociceptin): − (“−” indicates less than 50% inhibition at 10 μM)
A11 radioligand binding, percentage inhibition (Mouse urotensin (mUR2); [125I]-Urotensin II): − (“−” indicates less than 50% inhibition at 10 μM)

COCC1OC(OCc2ccc3ccccc3c2)C(NC(=O)CNC(=N)N)C(OCc2ccc3ccccc3c2)C1O (stereo not shown) [compound 247]
A1: inhibition of radioligand binding (Human δ-opioid (DOP); [3H]-Bremazocine, FlashPlate): − (“−” indicates less than 50% inhibition at 10 μM)
A2: inhibition of radioligand binding (Human κ-Opioid (KOP); [3H]-Diprenorphine, filtration): − (“−” indicates less than 50% inhibition at 10 μM)
A3: inhibition of radioligand binding (Human Melanocortin (MC3); [125I]-NDP-αMSH, FlashPlate): + (“+” indicates greater than 50% inhibition at 10 μM)
A4: inhibition of radioligand binding (Human Melanocortin (MC4); [125I]-NDP-αMSH, FlashPlate): + (“+” indicates greater than 50% inhibition at 10 μM)
A5: inhibition of radioligand binding (Human melanocortin (MC5); [125I]-NDP-αMSH, FlashPlate): + (“+” indicates greater than 50% inhibition at 10 μM)
A6: inhibition of radioligand binding ([1]; [125I]-S36057, FlashPlate): − (“−” indicates less than 50% inhibition at 10 μM)
A7: inhibition of radioligand binding (Human μ-opioid (MOP); [3H]-Naloxone, FlashPlate): − (“−” indicates less than 50% inhibition at 10 μM)
A8: inhibition of radioligand binding (Human neurokinin (NK1); [125I]-Substance P, filtration): + (“+” indicates greater than 50% inhibition at 10 μM)
A9: inhibition of radioligand binding ([2]; [125I]-PYY, FlashPlate): − (“−” indicates less than 50% inhibition at 10 μM)
A10: inhibition of radioligand binding (Human opioid (ORL1); [125I]-Nociceptin, FlashPlate): − (“−” indicates less than 50% inhibition at 10 μM)
A11: inhibition of radioligand binding (Mouse urotensin (mUR2); [125I]-Urotensin II, FlashPlate): − (“−” indicates less than 50% inhibition at 10 μM)

NCCC(=O)NC1C(OCc2ccc(Cl)cc2)OC(COCc2ccc(Cl)cc2)C(O)C1OCc1ccc(Cl)cc1 (single isomer, unassigned) [compound 476]
A1: inhibition of radioligand binding, human δ-opioid (DOP) (Human δ-opioid (DOP); [3H]-Bremazocine): − (“−” indicates less than 50% inhibition at 10 μM)
A2: inhibition of radioligand binding, human κ-opioid (KOP) (Human κ-Opioid (KOP); [3H]-Diprenorphine): − (“−” indicates less than 50% inhibition at 10 μM)
A3: inhibition of radioligand binding, human melanocortin (MC3) (Human Melanocortin (MC3); [125I]-NDP-αMSH): + (“+” indicates greater than 50% inhibition at 10 μM)
A4: inhibition of radioligand binding, human melanocortin (MC4) (Human Melanocortin (MC4); [125I]-NDP-αMSH): + (“+” indicates greater than 50% inhibition at 10 μM)
A5: inhibition of radioligand binding, human melanocortin (MC5) (Human melanocortin (MC5); [125I]-NDP-αMSH): + (“+” indicates greater than 50% inhibition at 10 μM)
A6: inhibition of radioligand binding, human melanin-concentrating hormone (MCH1) ([1]; [125I]-S36057): + (“+” indicates greater than 50% inhibition at 10 μM)
A7: inhibition of radioligand binding, human μ-opioid (MOP) (Human μ-opioid (MOP); [3H]-Naloxone): + (“+” indicates greater than 50% inhibition at 10 μM)
A8: inhibition of radioligand binding, human neurokinin (NK1) (Human neurokinin (NK1); [125I]-Substance P): + (“+” indicates greater than 50% inhibition at 10 μM)
A9: inhibition of radioligand binding, human neuropeptide Y (NPY-Y1) ([2]; [125I]-PYY): − (“−” indicates less than 50% inhibition at 10 μM)
A10: inhibition of radioligand binding, human opioid (ORL1) (Human opioid (ORL1); [125I]-Nociceptin): + (“+” indicates greater than 50% inhibition at 10 μM)
A11: inhibition of radioligand binding, mouse urotensin (mUR2) (Mouse urotensin (mUR2); [125I]-Urotensin II): − (“−” indicates less than 50% inhibition at 10 μM)

CO[C@H]1[C@H](O)[C@@H](COCc2ccc3ccccc3c2)OC(OCc2ccc(-c3ccccc3)cc2)[C@@H]1NC(=O)CNC(=N)N (stereo partly shown) [compound 55]
A1 radioligand binding inhibition (Human δ-opioid (DOP); human δ-opioid (DOP) membranes): − (“−” indicates less than 50% inhibition at 10 μM)
A2 radioligand binding inhibition (Human κ-Opioid (KOP); human κ-opioid (KOP) membranes): + (“+” indicates greater than 50% inhibition at 10 μM)
A3 radioligand binding inhibition (Human Melanocortin (MC3); human melanocortin MC3 membranes): + (“+” indicates greater than 50% inhibition at 10 μM)
A4 radioligand binding inhibition (Human Melanocortin (MC4); human melanocortin MC4 membranes): + (“+” indicates greater than 50% inhibition at 10 μM)
A5 radioligand binding inhibition (Human melanocortin (MC5); human melanocortin MC5 membranes): + (“+” indicates greater than 50% inhibition at 10 μM)
A6 radioligand binding inhibition ([1]; human MCH1 membranes): + (“+” indicates greater than 50% inhibition at 10 μM)
A7 radioligand binding inhibition (Human μ-opioid (MOP); human μ-opioid (MOP) membranes): + (“+” indicates greater than 50% inhibition at 10 μM)
A8 radioligand binding inhibition (Human neurokinin (NK1); human neurokinin NK1 membranes): + (“+” indicates greater than 50% inhibition at 10 μM)
A9 radioligand binding inhibition ([2]; human NPY-Y1 membranes): − (“−” indicates less than 50% inhibition at 10 μM)
A10 radioligand binding inhibition (Human opioid (ORL1); human ORL1 membranes): + (“+” indicates greater than 50% inhibition at 10 μM)
A11 radioligand binding inhibition (Mouse urotensin (mUR2); mouse urotensin mUR2 membranes): − (“−” indicates less than 50% inhibition at 10 μM)
